Results: US7211685B2, “Calcium receptor antagonists” (Japan Tobacco Inc., priority 2000, dated 2007)

Key:
[1] = tested on: osteoblast and osteoclast; details: cited from earlier work
[2] = OVX rat; cited from earlier work
PTH release = details: OVX rat, cited from earlier work
PTH secretion = PTH secretion promoting action, oral administration to male SD rats, serum PTH by rat PTH (1-84) ELISA; type: in vivo; details: 30 mg/kg, rat
Experimental: PTH Secretion Promoting Action
The test compound was orally administered to 6 to 9-week-old male SD rats (Charles River Japan, Inc.) fasted for 20 hr, using a solvent (5% ethanol, 0.5% aqueous methyl cellulose solution) at a dose of 30 mg/5 ml/kg and 100 mg/5 ml/kg. A solvent alone was orally administered to the control group at a dose of 5 ml/kg. The blood was drawn from the tail vein immediately before and 0.5, 1, 2, 4, 6 hr after the administration of the test compound, and sera were obtained. The serum PTH concentration was measured using rat PTH (1-84) ELISA kit (Nohon Medi-Physics). The results of the serum PTH concentration before and 30 min and 4 hr after the administration of the test compound are shown in Table 24, and the results of the serum PTH concentration before and 30 min and 2 hr after the administration of the test compound of the 30 mg/5 ml/kg administration group are shown in Table 25.
In FIG. 1, FIG. 2 and FIG. 3, the time-course changes of the serum PTH concentration at the dose (30 mg/kg) of Example 22, Example 23 and Example 24 are shown.

CC(C)(Cc1ccc2ccccc2c1)NC[C@@H](O)COc1cccc(Cl)c1C#N [NPS-2143]
direct effect on osteoblast and osteoclast in vitro [1]: no direct effect | concentration in blood of NPS-2143 after 24 hr [2]: not more than 10 ng/ml | concentration in blood of NPS-2143 at 8 hr after administration [2]: above 100 ng/ml | PTH concentration in blood after 4 hr (PTH release; NPS-2143 100 μmol/kg): about 140 pg/ml | PTH concentration in blood at 30 min (PTH release; NPS-2143 100 μmol/kg): about 115 pg/ml | effect on bone (PTH release; oral administration): no bone increase or decrease was found | PTH secretion promoting action, time course (FIG. 5) (PTH secretion): sustained secretion promoting action
